Each block holds one compound with its values, some of them ahead of it.
How the values were obtained:
[1] = Particle characteristics of LNPs containing luciferase mRNA and novel ionizable lipids; type: physicochemical
Description: The lipid solution contains 4 components: a PEG-conjugated lipid, an ionizable lipid, cholesterol, and a phospholipid (e.g., DSPC). Lipid stocks were prepared using the lipid identities and molar ratios as described, to achieve a total concentration of ˜7 mg/mL in 100% ethanol. Firefly luciferase mRNA (TriLink Biotechnologies, L-7202) or ornithine transcarbamylase (OTC) mRNA (TriLink Biotechnologies, custom designed) was diluted in acetate, pH 5 buffer and nuclease free water to achieve a target concentration of 0.366 mg/mL mRNA in 100 mM acetate, pH 5. Equal volumes of the lipid and nucleic acid solutions were blended at a flow rate of 400 mL/min through a T-connector, and diluted with ˜4 volumes of PBS, pH 7.4. Formulations were placed in Slide-A-Lyzer dialysis units (MWCO 10,000) and dialyzed overnight against 10 mM Tris, 500 mM NaCl, pH 8 buffer. Following dialysis, the formulations were concentrated to ˜0.6 mg/mL using VivaSpin concentrator units (MWCO 100,000) and dialyzed overnight against 5 mM Tris, 10% sucrose, pH 8 buffer. Formulations were filtered through a 0.2 μm syringe filter (PES membrane). Nucleic acid concentration was determined by the RiboGreen assay. Particle size and polydispersity were determined using a Malvern Nano Series Zetasizer.
LNP formulations containing novel ionizable lipids all produced stable particles with high encapsulation efficiency (Tables 1-7).

[2] = test system: luciferase activity in the liver; assay: Luciferase activity in liver after intravenous luciferase mRNA LNP; type: in vivo; settings: 0.5 mg/kg IV, 6 h post-IV administration, BALB/c mice (n = 4)
Description: Frozen aliquots of liver were thawed and homogenized in 1 mL of 1×CCLR (Cell Culture Lysis Reagent) using a FastPrep® homogenizer. The homogenate was then centrifuged at 16,000 RPM for 10 minutes at 4° C. Twenty (20) μL of the supernatant was loaded into a 96-well white plate and luminescence measured following addition of luciferase reagent (Promega Luciferase Assay System). Luciferase activity was determined by comparing luminescence of the homogenized samples to luciferase protein standards. To account for any quenching of luminescence by components in the liver homogenate, luciferase was added to the liver homogenates of untreated animals and the resulting luminescence measured. The resulting quench factor was applied to all samples to obtain the corrected luciferase activity, and normalized per unit mass of tissue analyzed.

[3] = Parent ionizable lipid remaining in liver at 6 h after luciferase mRNA LNP (LC-MS); type: in vivo; settings: 6 h after IV 0.5 mg/kg Luciferase mRNA LNP
Description: Liver tissues were treated with PBS and homogenized with a FastPrep machine, 3 cycles of 5 m/s×15 s. Homogenates from the PBS-treated control animals was pooled and used for standard curve preparation. Samples were extracted into a deep well plate with 250 μL of an internal suitability standard. Plates were centrifuged for 15 min at 4° C. and 2000 rpm. Analysis was performed using an Agilent 6520 QTOF coupled to an Agilent 1290 UHPLC, using reverse-phase LC separation. Quantitation of the ionizable lipid was by MS/MS against a calibration curve spiked into appropriately matched blank matrix. Calibration used a similar class of synthetic lipid as internal standard.
At 6 h post-dose, some treatment groups reported lower levels of novel ionizable lipid in mouse liver compared to the benchmark (Tables 16-18).

[4] = Table 7, luciferase mRNA LNP 1.6:54.6:32.8:10.9
[5] = Table 18, female BALB/c mice (n = 4)
[6] = Table 3, luciferase mRNA LNP 1.6:54.6:32.8:10.9
[7] = Table 6, luciferase mRNA LNP 1.6:54.6:32.8:10.9
[8] = Table 1, luciferase mRNA LNP 1.6:54.6:32.8:10.9
[9] = Table 1, luciferase mRNA LNP 1.6:54.6:32.8:10.9 PEG2000-C-DMA:Ionizable lipid:Cholesterol:DSPC
[10] = Table 5, luciferase mRNA LNP 1.6:54.6:32.8:10.9
[11] = Table 2, luciferase mRNA LNP 1.6:54.6:32.8:10.9
[12] = Table 4, luciferase mRNA LNP 1.6:54.6:32.8:10.9

Compound: CCCCCCCCCCON(C(=O)CCCCN(C)C)C(CCCCCCCCCC)CCCCCC(=O)OCC(CCCCCC)CCCCCCCC (centres unmarked) [Compound 47, 2-Hexyldecyl 7-(N-(decyloxy)-5-(dimethylamino)pentanamido)heptadecanoate]
- Final Product % EE [1, 4]: 98%
- Final Product PDI [1, 4]: 0.07
- Final Product Z-avg [1, 4]: 77 nm
- Luc Activity ([2]; Table 14): 8.09E+07 pg/g liver
- Parent ionizable lipid remaining in liver, Average [3, 5]: 54.78 nmol/g liver

Compound: CCCCCCCCCCCCC(=O)N(CCCN(C)C)C(CCCCCCCCCC)CCCCC(=O)OCc1cc(CCCCCC)cc(CCCCCC)c1 (centres unmarked) [Compound 61, 3,5-Dihexylbenzyl 6-(N-(3-(dimethylamino)propyl)tridecanamido)hexadecanoate]
- Final Product % EE [1, 6]: 99%
- Final Product PDI [1, 6]: 0.05
- Final Product Z-avg [1, 6]: 76 nm
- Luc Activity ([2]; Table 10): 2.45E+07 pg/g liver
- Parent ionizable lipid remaining in liver, Average ([3]; Table 16, female BALB/c mice (n = 4)): 27.21 nmol/g liver

Compound: CCCCCCCCCCC(CCCCCCCC(=O)OCC(CCCCCC)CCCCCCCC)N(CCCCCCCCC(=O)OCC(CCCCCC)CCCCCCCC)C(=O)CCCCN(C)C (centres unmarked) [Compound 72, 2-Hexyldecyl 9-(5-(dimethylamino)-N-(9-((2-hexyldecyl)oxy)-9-oxononyl)pentanamido)-nonadecanoate]
- Final Product % EE [1, 7]: 99%
- Final Product PDI [1, 7]: 0.00
- Final Product Z-avg [1, 7]: 79 nm
- Luc Activity ([2]; Table 13): 2.26E+07 pg/g liver
- Parent ionizable lipid remaining in liver, Average ([3]; Table 17, female mice (n = 4)): 47.56 nmol/g liver

Compound: CCCCCCCCCCC(CCCCCCC(=O)OCCC(CCCCCC)CCCCCC)N(CCCCCCCC(=O)OCCC(CCCCCC)CCCCCC)C(=O)CCCN(C)C (centres unmarked) [Compound 69]
- Luc Activity ([2]; Table 13): 4.10E+07 pg/g liver
- Parent ionizable lipid remaining in liver, Average ([3]; Table 17, female mice (n = 4)): 50.57 nmol/g liver

Compound: CCCCCCCCCCC(CCCCCCC(=O)OCCC(CCCCC)CCCCC)N(CCCCCC(F)C(=O)OCCC(CCCCC)CCCCC)C(=O)CCCN(C)C (centres unmarked) [Compound 86]
- Luc Activity ([2]; Table 14): 1.21E+07 pg/g liver
- Parent ionizable lipid remaining in liver, Average [3, 5]: 12.79 nmol/g liver

Compound: CCCCCCCCCCON(C(=O)CCCCN(C)C)C(CCCCCCCCCC)CCCCCCC(=O)OCC(CCCCCC)CCCCCCCC (centres unmarked) [Compound 45]
- Luc Activity ([2]; Table 13): 8.00E+07 pg/g liver
- Parent ionizable lipid remaining in liver, Average ([3]; Table 17, female mice (n = 4)): 36.39 nmol/g liver

Compound: CCCCCCCCCCC(CCCCCCC(=O)OCCC(CCCCCCC)CCCCCCC)N(CCCCCCCC(=O)OCCC(CCCCCCC)CCCCCCC)C(=O)CCCN(C)C (centres unmarked) [Compound 71]
- Luc Activity ([2]; Table 13): 4.58E+07 pg/g liver
- Parent ionizable lipid remaining in liver, Average ([3]; Table 17, female mice (n = 4)): 27.52 nmol/g liver

Compound: CCCCCCCCCCC(CCCCCCC(=O)OCC(CCCCCC)CCCCCCCC)N(CCCN(C)C)C(=O)CCCCCCC(=O)OCCC(CCCCCCC)CCCCCCC (centres unmarked) [Compound 85]
- Luc Activity ([2]; Table 13): 4.79E+07 pg/g liver
- Parent ionizable lipid remaining in liver, Average ([3]; Table 17, female mice (n = 4)): 37.66 nmol/g liver

- Final Product % EE [1, 8]: 96%
- Final Product PDI [1, 8]: 0.08
- Final Product Z-avg [1, 9]: 61 nm
Compound: CCCCCCCCCC(CC(=O)OCC(CCCCCC)CCCCCCCC)N(CCCN(C)C)S(=O)(=O)CCCC (centres unmarked) [Compound 49, 2-Hexyldecyl 3-(N-(3-(dimethylamino)propyl)butylsulfonamido)dodecanoate]
- Luc Activity ([2]; Table 8): 8.36E+06 pg/g liver

- Final Product % EE [1, 8]: 95%
- Final Product PDI [1, 8]: 0.05
- Final Product Z-avg [1, 9]: 72 nm
Compound: CCCCC/C=C\CCCOC(=O)CC(CCCCCCCCC)N(CCCN(C)C)S(=O)(=O)CCCCCCCCCCC (centres unmarked) [Compound 52, (Z)-Dec-4-en-1-yl 3-(N-(3-(dimethylamino)propyl)undecylsulfonamido)dodecanoate]
- Luc Activity ([2]; Table 8): 5.65E+06 pg/g liver

Compound: CCCCCCCCCCC(CCCCCCC(=O)OCCC(CCCCC)CCCCC)N(CCCCCCCCC(=O)OCCC(CCCCC)CCCCC)C(=O)CCCCN(C)C (centres unmarked) [Compound 75]
- Luc Activity ([2]; Table 14): 2.58E+07 pg/g liver
- Parent ionizable lipid remaining in liver, Average [3, 5]: 20.44 nmol/g liver

- Final Product % EE [1, 10]: 96%
- Final Product PDI [1, 10]: 0.08
- Final Product Z-avg [1, 10]: 81 nm
Compound: CCCCCCCCCCC(CCCCC(=O)OCC(CCCCCC)CCCCCCCC)N(CCCCCCCCCC)C(=O)CCCN(C)C (centres unmarked) [Compound 2, 2-Hexyldecyl 6-(N-decyl-4-(dimethylamino)butanamido)hexadecanoate]
- Luc Activity ([2]; Table 12): 7.11E+07 pg/g liver

- Final Product % EE [1, 11]: 98%
- Final Product PDI [1, 11]: (0.05)
- Final Product Z-avg [1, 11]: 87 nm
Compound: CCCCCCCCCC(=O)N(CCCN(C)C)C(CCCCCCCCC)CCOC(=O)C(F)(CCCCCC)CCCCCCCC (centres unmarked) [Compound 40, 3-{N-[3-(dimethylamino)propyl]decanamido}dodecyl 2-fluoro-2-hexyldecanoate]
- Luc Activity ([2]; Table 9): 3.57E+07 pg/g liver

- Final Product % EE [1, 11]: 99%
- Final Product PDI [1, 11]: (0.13)
- Final Product Z-avg [1, 11]: 81 nm
Compound: CCCCCCCCCC(=O)N(CCCN(C)C)C(CCCCCCCCC)CC(=O)NNC(CCCCCCCC)CCCCCCCC (centres unmarked) [Compound 58, N-[3-(dimethylamino)propyl]-N-{1-[N′-(heptadecan-9-yl)hydrazinecarbonyl]undecan-2-yl}decanamide]
- Luc Activity ([2]; Table 9): 3.11E+05 pg/g liver

- Final Product % EE [1, 12]: 95%
- Final Product PDI [1, 12]: 0.20
- Final Product Z-avg [1, 12]: 90 nm
Compound: CCCCCCCCCCC(CCCCCC(=O)OCCCCC(CCCCCCCC)CCCCCCCC)N(CCN(C)C)C(=O)CCCCCCC(=O)OC(CC)CCCCCCCC (centres unmarked) [Compound 28, 5-Octyltridecyl 7-(N-(2-(dimethylamino)ethyl)-8-oxo-8-(undecan-3-yloxy)octanamido)-heptadecanoate]
- Luc Activity ([2]; Table 11): 6.50E+06 pg/g liver

Compound: CCCCCCCCCCC(CCCCCCC(=O)OCCC(CCCCC)CCCCC)N(CCCCCCCC(=O)OCc1cc(CCCCCC)cc(CCCCCC)c1)C(=O)CCCN(C)C (centres unmarked) [Compound 66]
- Luc Activity ([2]; Table 14): 2.00E+07 pg/g liver
- Parent ionizable lipid remaining in liver, Average [3, 5]: 34.35 nmol/g liver

- Final Product % EE [1, 10]: 98%
- Final Product PDI [1, 10]: 0.02
- Final Product Z-avg [1, 10]: 80 nm
Compound: CCCCCCCCCCC(CCCCCC(=O)OCC(CCCCCC)CCCCCCCC)N(CCCN(C)C)C(=O)CCCCCCC(=O)OCC(CCCC)CCCCCC (centres unmarked) [Compound 29, 2-Hexyldecyl 7-(8-((2-butyloctyl)oxy)-N-(3-(dimethylamino)propyl)-8-oxooctanamido)-heptadecanoate]
- Luc Activity ([2]; Table 12): 6.74E+07 pg/g liver

Compound: CCCCCCCCCCC(CCCCCCC(=O)OCC(CCCCCC)CCCCCCCC)N(CCCN(C)C)C(=O)CCCCCCC(=O)OCCC(CCCCCC)CCCCCC (centres unmarked) [Compound 84]
- Luc Activity ([2]; Table 13): 6.26E+07 pg/g liver
- Parent ionizable lipid remaining in liver, Average ([3]; Table 17, female mice (n = 4)): 38.96 nmol/g liver

Compound: CCCCCCCCCCOC(=O)CC(CCCCCCCCC)N(CCCN(C)C)S(=O)(=O)CC(CCCCCC)CCCCCCCC (centres unmarked) [Compound 50, Decyl 3-{N-[3-(dimethylamino)propyl]2-hexyldecanesulfonamido}dodecanoate]
- Final Product % EE [1, 8]: 93%
- Final Product PDI [1, 8]: 0.07
- Final Product Z-avg [1, 9]: 61 nm
- Luc Activity ([2]; Table 8): 4.82E+06 pg/g liver

Compound: CCCCCCCCCCC(CCCCCCC(=O)OCC(CCCCCC)CCCCCCCC)N(OCCCCCCCCC)C(=O)CCCN(C)C (centres unmarked) [Compound 46]
- Luc Activity ([2]; Table 13): 1.08E+08 pg/g liver
- Parent ionizable lipid remaining in liver, Average ([3]; Table 17, female mice (n = 4)): 47.63 nmol/g liver
